Columns and labels:
Assay type in all cases: in vivo
sorghum [1] = assay: Herbicidal activity test against upland field weeds (foliar treatment test); set-up: key to Foliar treatment herbicidal activity, Sorghum: 0 (no control); 100 (complete control); details: 50 g ai/ha, scale 0-100; for plant injury at 50 g/ha: Sorghum
Outline: (§1)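 Visual 0–100 control ratings relative to untreated plants, taken 14 (or 21) days after spraying foliage at 50 or 75 g a.i./ha. Spray solution: 50% acetone with 0.1% Tween-20; plants kept in greenhouse at 30±5 °C, 14 h light/10 h dark.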

barnyard grass [2] = assay: as above; details: 50 g ai/ha, scale 0-100; for pest or weed control at 50 g/ha: Echinochloa crus-galli
Outline: as §1

quack grass = assay: as above; set-up: key to Foliar treatment herbicidal activity, quack grass: 0 (no control); 100 (complete control); details: 50 g ai/ha, scale 0-100
Outline: as §1

crabgrass [3] = assay: as above; set-up: key to Foliar treatment herbicidal activity, Crabgrass: 0 (no control); 100 (complete control); details: 50 g ai/ha, scale 0-100; for pest or weed control at 50 g/ha: Digitaria sanguinalis
Outline: as §1

fall panicum [4] = assay: as above; details: 50 g ai/ha, scale 0-100; for pest or weed control at 50 g/ha: Panicum dichotomiflorum
Outline: as §1

indian jointvetch [5] = assay: as above; details: 50 g ai/ha, scale 0-100
Outline: as §1

velvetleaf [6] = assay: as above; set-up: key to Foliar treatment herbicidal activity, velvet leaf: 0 (no control); 100 (complete control); details: 50 g ai/ha; for pest or weed control at 50 g/ha: Abutilon theophrasti, scale 0-100, read-out: Foliar treatment herbicidal activity, velvet leaf
Outline: as §1

cocklebur [7] = assay: as above; set-up: key to Foliar treatment herbicidal activity, Cocklebur: 0 (no control); 100 (complete control); details: 50 g ai/ha, scale 0-100; for pest or weed control at 50 g/ha: Xanthium strumarium
Outline: as §1

bindweed [8] = assay: as above; set-up: key to Foliar treatment herbicidal activity, Bindweed: 0 (no control); 100 (complete control); details: 50 g ai/ha, scale 0-100
Outline: as §1

sorghum [9] = assay: Herbicidal activity test against upland field weeds (soil treatment test); set-up: key to Soil treatment herbicidal activity, Sorghum: 0 (no control); 100 (complete control); details: 50 g ai/ha, scale 0 (no control) to 100 (complete control)
Outline: (§2)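 Weed control scored visually on a 0 (none) to 100 (complete) scale versus untreated pots at 14 or 21 days in greenhouse (30±5 °C, 14 h light). Test compounds, 50 or 75 g a.i./ha in 50% acetone/0.1% Tween-20, hand-sprayed onto soil one day post-sowing.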

barnyard grass [10] = assay: as above; set-up: key to Soil treatment herbicidal activity, barnyard grass: 0 (no control); 100 (complete control); details: 50 g ai/ha, scale 0 (no control) to 100 (complete control)
Outline: as §2

crabgrass [11] = assay: as above; set-up: key to Soil treatment herbicidal activity, Crabgrass: 0 (no control); 100 (complete control); details: 50 g ai/ha, scale 0 (no control) to 100 (complete control)
Outline: as §2

fall panicum [12] = assay: as above; set-up: key to Soil treatment herbicidal activity, Fall panicum: 0 (no control); 100 (complete control); details: 50 g ai/ha, scale 0 (no control) to 100 (complete control)
Outline: as §2

indian jointvetch [13] = assay: as above; set-up: key to Soil treatment herbicidal activity, Indian jointvetch: 0 (no control); 100 (complete control); details: 50 g ai/ha, scale 0 (no control) to 100 (complete control)
Outline: as §2

velvetleaf [14] = assay: as above; set-up: key to Soil treatment herbicidal activity, velvet leaf: 0 (no control); 100 (complete control); details: 50 g ai/ha, scale 0 (no control) to 100 (complete control)
Outline: as §2

cocklebur [15] = assay: as above; set-up: key to Soil treatment herbicidal activity, Cocklebur: 0 (no control); 100 (complete control); details: 50 g ai/ha, scale 0 (no control) to 100 (complete control)
Outline: as §2

bindweed [16] = assay: as above; details: 50 g ai/ha, scale 0 (no control) to 100 (complete control)
Outline: as §2

Row | SMILES | plant injury at 50 g/ha (sorghum [1]) | pest or weed control at 50 g/ha (barnyard grass [2]) | Foliar treatment herbicidal activity, quack grass (quack grass) | pest or weed control at 50 g/ha (crabgrass [3]) | pest or weed control at 50 g/ha (fall panicum [4]) | pest or weed control at 50 g/ha (indian jointvetch [5]) | pest or weed control at 50 g/ha (velvetleaf [6]) | pest or weed control at 50 g/ha (cocklebur [7]) | pest or weed control at 50 g/ha (bindweed [8]) | Soil treatment herbicidal activity, Sorghum (sorghum [9]) | Soil treatment herbicidal activity, barnyard grass (barnyard grass [10]) | Soil treatment herbicidal activity, Crabgrass (crabgrass [11]) | Soil treatment herbicidal activity, Fall panicum (fall panicum [12]) | Soil treatment herbicidal activity, Indian jointvetch (indian jointvetch [13]) | Soil treatment herbicidal activity, velvet leaf (velvetleaf [14]) | further results
1 | CON(Cc1nnn(C)n1)Cc1nc(C(F)(F)F)ccc1C(=O)Nc1nnnn1C [Compound No. 2-97, 2-((methoxy((2-methyl-2H-tetrazol-5-yl)methyl)amino)methyl)-N-(1-methyl-1H-tetrazol-5-yl)-6-(trifluoromethyl)nicotinamide] | 50% | 95% | 0 | 95% | 95% | 95% | 95% | 95% | 80% | – | – | – | – | – | – | –
2 | COc1nc(COCc2nc(C(F)(F)F)ccc2C(=O)Nc2nnnn2C)nn1C [Compound No. 2-129, 2-(((5-methoxy-1-methyl-1H-1,2,4-triazol-3-yl)methoxy)methyl)-N-(1-methyl-1H-tetrazol-5-yl)-6-(trifluoromethyl)nicotinamide] | 40% | 90% | 0 | 70% | 50% | 60% | 70% | 70% | 40% | 0 | 0 | 0 | 0 | 0 | – | –
3 | Cn1nnc(CSCc2nc(C(F)(F)F)ccc2C(=O)Nc2nnnn2C)n1 [Compound No. 2-102, N-(1-methyl-1H-tetrazol-5-yl)-2-((((2-methyl-2H-tetrazol-5-yl)methyl)thio)methyl)-6-(trifluoromethyl)nicotinamide] | 70% | 95% | 0 | – | 80% | 98% | 80% | – | – | – | – | 100 | 100 | – | 100 | Foliar treatment herbicidal activity, Crabgrass (crabgrass [3]): 100; Foliar treatment herbicidal activity, Cocklebur (cocklebur [7]): 100; Foliar treatment herbicidal activity, Bindweed (bindweed [8]): 100; plant injury at 50 g/ha (sorghum [9]; Sorghum): 20%; pest or weed control at 50 g/ha (barnyard grass [10]; Echinochloa crus-galli): 98%
4 | Cn1nc(COCc2nc(C(F)(F)F)ccc2C(=O)Nc2nnnn2C)nc1Cl [Compound No. 2-135, 2-(((5-chloro-1-methyl-1H-1,2,4-triazol-3-yl)methoxy)methyl)-N-(1-methyl-1H-tetrazol-5-yl)-6-(trifluoromethyl)nicotinamide] | 30% | 98% | 0 | 70% | 50% | 95% | 40% | 95% | 70% | 0 | 0 | 0 | 0 | 0 | 0 | Soil treatment herbicidal activity, Cocklebur (cocklebur [15]): 0
5 | Cn1nc(COCc2nc(C(F)(F)F)ccc2C(=O)Nc2nnnn2C)nc1C#N [Compound No. 2-134, 2-(((5-cyano-1-methyl-1H-1,2,4-triazol-3-yl)methoxy)methyl)-N-(1-methyl-1H-tetrazol-5-yl)-6-(trifluoromethyl)nicotinamide] | 10% | 98% | – | 80% | 50% | 70% | 60% | 50% | 98% | – | – | – | – | – | – | pest or weed control at 50 g/ha (quack grass): 10%
6 | Cn1nc(COCc2nc(C(F)(F)F)ccc2C(=O)Nc2nnnn2C)nc1Br [Compound No. 2-136, 2-(((5-bromo-1-methyl-1H-1,2,4-triazol-3-yl)methoxy)methyl)-N-(1-methyl-1H-tetrazol-5-yl)-6-(trifluoromethyl)nicotinamide] | 20% | 70% | 0 | 60% | 50% | 20% | 40% | 95% | 50% | – | – | – | – | – | – | –
7 | CCOC(=O)OC(C)n1nnn(C)c1=NC(=O)c1ccc(C(F)(F)F)nc1CSCc1nnn(C)n1 (stereo not drawn) [Compound No. 4-10, ethyl (1-(4-methyl-5-((2-((((2-methyl-2H-tetrazol-5-yl)methyl)thio)methyl)-6-(trifluoromethyl)nicotinoyl)imino)-4,5-dihydro-1H-tetrazol-1-yl)ethyl)carbonate] | – | – | 0 | – | – | – | – | – | – | 40 | 100 | 100 | 40 | 95BI | 100 | Foliar treatment herbicidal activity, Sorghum (sorghum [1]): 100; Foliar treatment herbicidal activity, barnyard grass (barnyard grass [2]): 98; Foliar treatment herbicidal activity, Crabgrass (crabgrass [3]): 100; Foliar treatment herbicidal activity, Fall panicum (fall panicum [4]): 95; Foliar treatment herbicidal activity, Indian jointvetch (indian jointvetch [5]): 98; Foliar treatment herbicidal activity, velvet leaf (velvetleaf [6]; scale 0-100): 100; Foliar treatment herbicidal activity, Cocklebur (cocklebur [7]): 100; Foliar treatment herbicidal activity, Bindweed (bindweed [8]): 100; Soil treatment herbicidal activity, Bindweed (bindweed [16]): 40
8 | Cc1nc(COCc2nc(C(F)(F)F)ccc2C(=O)Nc2nnnn2C)nn1C [Compound No. 2-116, 2-(((1,5-dimethyl-1H-1,2,4-triazol-3-yl)methoxy)methyl)-N-(1-methyl-1H-tetrazol-5-yl)-6-(trifluoromethyl)nicotinamide] | 40% | 98% | 0 | 80% | 80% | 40% | 90% | 98% | 90% | – | – | – | – | – | – | –
9 | Cc1nc(COCc2nc(C(F)(F)F)ccc2C(=S)Nc2nnnn2C)nn1C [Compound No. 2-117, 2-(((1,5-dimethyl-1H-1,2,4-triazol-3-yl)methoxy)methyl)-N-(1-methyl-1H-tetrazol-5-yl)-6-(trifluoromethyl)pyridin-3-carbothioamide] | 40% | 98% | 0 | 95% | 40% | 40% | 90% | 90% | 70% | – | – | – | – | – | – | –
10 | Cn1nnc(CSCc2nc(C(F)(F)F)ccc2C(=O)N(c2nnnn2C)S(C)(=O)=O)n1 [Compound No. 2-110, N-(1-methyl-1H-tetrazol-5-yl)-2-((((2-methyl-2H-tetrazol-5-yl)methyl)thio)methyl)-N-(methylsulfonyl)-6-(trifluoromethyl)nicotinamide] | 20% | 20% | 0 | 70% | 70% | 95% | 80% | 95% | 98% | – | – | – | – | – | – | –

— US12495798B2, “Nicotinamide compound and herbicidal composition comprising compound” (KOREA RESEARCH INSTITUTE OF CHEMICAL TECHNOLOGY, priority 2019, dated 2025)
